20 compounds from patent US20250296938A1, “Compounds that Interact with the Ras Superfamily for the Treatment of Cancers, Inflammatory Diseases, Rasopathies, and Fibrotic Disease” (SHY Therapeutics, LLC, priority 2018, published 2025) can be followed below.

One assay concerns TNF-α. Put plainly: Mouse TNF alpha quantification assay, LPS-stimulated RAW 264.7 macrophages. The assay is classed as cell-based. The following applies: RAW264.7, 30 μM, LPS-stimulated RAW 264.7 macrophages. As for the experimental part:
(§1) Cell lines: Abelson murine leukemia virus transformed macrophage cell line RAW 264.7 was purchased from ATCC and grown in complete DMEM-High Glucose medium supplemented with penicillin (100 U/mL), streptomycin (100 μg/mL), and 10% heat-inactivated FBS at 37° C. in a humidified incubator with 5% CO2.
(§2) Method: Cells were plated at 25000-40000 cells/well density in a 96-well plate. After a 3-hour incubation, macrophages were starved with DMEM plus 0.5% FBS overnight. The next day the small molecules to be tested were added to the cells in the final concentration of 30 μM (with 0.3% DMSO) 3 hours prior to LPS stimulation (100 ng/ml). After LPS stimulation cells were incubated at 37° C. for 16 h. Alternatively, compounds were also tested at 10 μM and LPS (100 ng/ml) was added concurrently and incubated 5 hours at 37° C. At the end of the incubation periods, culture medium was collected and production of LPS-induced TNF-α and IL-6 cytokine was measured using ELISA detection kits.
(§3) Sandwich ELISA: The ELISA Immunoassays Quantikine Mouse TNF-alpha (catalog number MTA00B) and IL6 (catalog number M6000B) were purchased from R&D Systems Inc., Minneapolis, MN. These 4.5 hours solid phase ELISAs were used to measure mouse TNF-α or IL-6 levels in macrophages culture supernatants. Assays were executed according to the manufacturer specifications.
The inhibition is the relative decrease from the control value, in per cent. `COCC1CCN(c2nc(-c3nccn3C)nc3sc(-c4ccn(C)n4)c(-c4ccccc4)c23)C1` (stereo not shown) [drawing 685]: the inhibition at 30 µM is 76 to 100%.
On to `Cn1ccc(-c2sc3nc(-c4nccn4C)nc(N4CCC5(CCOC5)C4)c3c2-c2ccccc2)n1` (stereo not shown) [drawing 686], for which 30 µM produced 0% inhibition.
The same measure, in the same setting: in the case of `COC1CCN(c2nc(-c3nccn3C)nc3sc(-c4ccn(C)n4)c(-c4ccccc4)c23)CC1` [drawing 687] it was 26 to 50%; in that of `COCCCNc1nc(-c2nccn2C)nc2sc(-c3ccn(C)n3)c(-c3ccc(OC)cc3)c12` [drawing 688], 0%; in that of `COCC(C)Nc1nc(-c2nccn2C)nc2sc(-c3ccn(C)n3)c(-c3ccc(OC)cc3)c12` (stereo not shown) [drawing 689], 0%.
`COc1ccc(-c2c(-c3ccn(C)n3)sc3nc(-c4nccn4C)nc(N4CCC(OC)C4)c23)cc1` (stereo not shown) [drawing 690]: at 30 µM the inhibition was 0%.
With `COCC(C)Nc1nc(-c2nccn2C)nc2sc(-c3ccccc3Cl)c(-c3cscn3)c12` (stereo not shown) [drawing 691], the inhibition at 30 µM lay within 76 to 100%.
On the same count and under the same terms, in the case of `COC1CCN(c2nc(-c3nccn3C)nc3sc(-c4ccccc4Cl)c(-c4cscn4)c23)C1` (stereo not shown) [drawing 692] it was 0%; in that of `COCC(C)Nc1nc(-c2nccn2C)nc2sc(-c3cccc(OC)c3)c(-c3cscn3)c12` (stereo not shown) [drawing 693], 26 to 50%; in that of `COc1cccc(-c2sc3nc(-c4nccn4C)nc(N4CCC(OC)C4)c3c2-c2cscn2)c1` (stereo not shown) [drawing 694], 1 to 25%.
Still for that read-out and setting: next, `COCCNc1nc(-c2nccn2C)nc2sc(-c3ccccc3Cl)c(-c3ccc(OC)cc3)c12` [drawing 695]: 0%; `COCCNc1nc(-c2nccn2C)nc2sc(-c3cccc(OC)c3)c(-c3ccc(OC)cc3)c12` [drawing 696]: 76 to 100%.
Still for that read-out and setting: next, `COCCNc1nc(-c2nccn2C)nc2sc(-c3cccc(OC)c3Cl)c(-c3ccc(OC)cc3)c12` [drawing 697]: 0%.
With `COCCNc1nc(-c2nccn2C)nc2sc(-c3cc(OC)ccc3Cl)c(-c3ccc(OC)cc3)c12` [drawing 698], the inhibition at 30 µM was 26 to 50%.
`COCCNc1nc(-c2cn(C)cn2)nc2sc(-c3ccccc3Cl)c(-c3ccc(OC)cc3)c12` [drawing 699] registered an inhibition at 30 µM of 76 to 100%.
Still for that read-out and setting: in the case of `COCCNc1nc(-c2nccn2C)nc2sc(-c3cccc(OC)c3Cl)c(-c3ccccc3)c12` [drawing 700] it was 76 to 100%; in that of `COCCNc1nc(-c2nccn2C)nc2sc(-c3cc(OC)ccc3Cl)c(-c3ccccc3)c12` [drawing 701], 1 to 25%; in that of `COc1cc(-c2sc3nc(-c4nccn4C)nc(N4CCC(OC)C4)c3c2-c2ccccc2)ccn1` (stereo not shown) [drawing 702], 76 to 100%.
On the same count and under the same terms, next, `COC1CCN(c2nc(-c3nccn3C)nc3sc(-c4ccnn4C)c(-c4ccccc4)c23)C1` (stereo not shown) [drawing 703]: 0%; `COC1CCN(c2nc(-c3nccn3C)nc3sc(-c4cccnc4)c(-c4ccccc4)c23)C1` (stereo not shown) [drawing 704]: 76 to 100%.

The subject of the next assay is IL-6. The experiment in a line: Mouse IL6 quantification assay, LPS-stimulated RAW 264.7 macrophages. The following applies: RAW264.7, 30 μM, LPS-stimulated RAW 264.7 macrophages. It counts as cell-based. As for the experimental part: as §1, §2, §3
Take `COCC1CCN(c2nc(-c3nccn3C)nc3sc(-c4ccn(C)n4)c(-c4ccccc4)c23)C1` (stereo not shown) [drawing 685]: the inhibition at 30 µM was 76 to 100%.
On the same count and under the same terms, in the case of `Cn1ccc(-c2sc3nc(-c4nccn4C)nc(N4CCC5(CCOC5)C4)c3c2-c2ccccc2)n1` (stereo not shown) [drawing 686] it was 51 to 75%; in that of `COC1CCN(c2nc(-c3nccn3C)nc3sc(-c4ccn(C)n4)c(-c4ccccc4)c23)CC1` [drawing 687], 26 to 50%.
The same measure, in the same setting: in the case of `COCCCNc1nc(-c2nccn2C)nc2sc(-c3ccn(C)n3)c(-c3ccc(OC)cc3)c12` [drawing 688] it was 76 to 100%.
On the same count and under the same terms, next, `COCC(C)Nc1nc(-c2nccn2C)nc2sc(-c3ccn(C)n3)c(-c3ccc(OC)cc3)c12` (stereo not shown) [drawing 689]: 76 to 100%; `COc1ccc(-c2c(-c3ccn(C)n3)sc3nc(-c4nccn4C)nc(N4CCC(OC)C4)c23)cc1` (stereo not shown) [drawing 690]: 1 to 25%; `COCC(C)Nc1nc(-c2nccn2C)nc2sc(-c3ccccc3Cl)c(-c3cscn3)c12` (stereo not shown) [drawing 691]: 76 to 100%.
With `COC1CCN(c2nc(-c3nccn3C)nc3sc(-c4ccccc4Cl)c(-c4cscn4)c23)C1` (stereo not shown) [drawing 692], the inhibition at 30 µM lay within 51 to 75%.
On the same count and under the same terms, in the case of `COCC(C)Nc1nc(-c2nccn2C)nc2sc(-c3cccc(OC)c3)c(-c3cscn3)c12` (stereo not shown) [drawing 693] it was 26 to 50%; in that of `COc1cccc(-c2sc3nc(-c4nccn4C)nc(N4CCC(OC)C4)c3c2-c2cscn2)c1` (stereo not shown) [drawing 694], 1 to 25%.
Compound `COCCNc1nc(-c2nccn2C)nc2sc(-c3ccccc3Cl)c(-c3ccc(OC)cc3)c12` [drawing 695] had an inhibition at 30 µM of 26 to 50%.
Still for that read-out and setting: next, `COCCNc1nc(-c2nccn2C)nc2sc(-c3cccc(OC)c3)c(-c3ccc(OC)cc3)c12` [drawing 696]: 76 to 100%.
Same read-out and setting: next, `COCCNc1nc(-c2nccn2C)nc2sc(-c3cccc(OC)c3Cl)c(-c3ccc(OC)cc3)c12` [drawing 697]: 26 to 50%.
Same read-out and setting: next, `COCCNc1nc(-c2nccn2C)nc2sc(-c3cc(OC)ccc3Cl)c(-c3ccc(OC)cc3)c12` [drawing 698]: 51 to 75%.
Compound `COCCNc1nc(-c2cn(C)cn2)nc2sc(-c3ccccc3Cl)c(-c3ccc(OC)cc3)c12` [drawing 699] had an inhibition at 30 µM of 76 to 100%.
Regarding `COCCNc1nc(-c2nccn2C)nc2sc(-c3cccc(OC)c3Cl)c(-c3ccccc3)c12` [drawing 700], the inhibition at 30 µM lay in the range of 76 to 100%.
On the same count and under the same terms, next, `COCCNc1nc(-c2nccn2C)nc2sc(-c3cc(OC)ccc3Cl)c(-c3ccccc3)c12` [drawing 701]: 51 to 75%; `COc1cc(-c2sc3nc(-c4nccn4C)nc(N4CCC(OC)C4)c3c2-c2ccccc2)ccn1` (stereo not shown) [drawing 702]: 76 to 100%; `COC1CCN(c2nc(-c3nccn3C)nc3sc(-c4ccnn4C)c(-c4ccccc4)c23)C1` (stereo not shown) [drawing 703]: 26 to 50%.
The same measure, in the same setting: next, `COC1CCN(c2nc(-c3nccn3C)nc3sc(-c4cccnc4)c(-c4ccccc4)c23)C1` (stereo not shown) [drawing 704]: 76 to 100%.
